Converted amounts (≈) assume the structure as drawn. The source made the active and inactive calls. No cut-off for these calls is given here.
What was measured:
[1] = tested on: Mycobacterium tuberculosis; test: Antibacterial activity against Mycobacterium tuberculosis H37Rv assessed as inhibition of bacterial growth incubated for 7 days by alamar blue assay; type: functional; conditions: 168 h, time 7 day
[2] = tested on: Staphylococcus aureus; test: Antibacterial activity against Staphylococcus aureus ATCC25923 assessed as inhibition of bacterial growth incubated for 18 hrs by microdilution broth assay; type: functional
[3] = tested on: Enterococcus faecalis; test: Antibacterial activity against Enterococcus faecalis ATCC29212 assessed as inhibition of bacterial growth incubated for 18 hrs by microdilution broth assay; type: functional
[4] = tested on: Bacillus subtilis; test: Antibacterial activity against Bacillus subtilis ATCC6633 assessed as inhibition of bacterial growth incubated for 18 hrs by microdilution broth assay; type: functional
[5] = tested on: Staphylococcus epidermidis; test: Antibacterial activity against Staphylococcus epidermidis ATCC12228 assessed as inhibition of bacterial growth incubated for 18 hrs by microdilution broth assay; type: functional
[6] = Metabolic stability in ICR mouse liver microsomes assessed as substrate remaining at 10 uM incubated for 60 mins in presence of NADPH by LC-MS/MS analysis; type: ADME, Microsome; conditions: read-out: Stability
[7] = Metabolic stability in human liver microsomes assessed as substrate remaining at 10 uM incubated for 60 mins in presence of NADPH by LC-MS/MS analysis; type: ADME, Microsome; conditions: read-out: Stability
[8] = Cytotoxicity against African green monkey Vero cells incubated for 48 hrs by MTT assay; type: toxicity, cell-based, Chlorocebus sabaeus
[9] = tested on: Staphylococcus aureus; test: Antibacterial activity against methicillin resistant Staphylococcus aureus clinical isolate 20-1 assessed as inhibition of bacterial growth incubated for 7 days by alamar blue assay; type: functional; conditions: clinical isolate 20-1, 168 h, time 7 day
[10] = tested on: Staphylococcus aureus; test: Antibacterial activity against methicillin resistant Staphylococcus aureus clinical isolate 20-2 assessed as inhibition of bacterial growth incubated for 7 days by alamar blue assay; type: functional; conditions: clinical isolate 20-2, 168 h, time 7 day
[11] = tested on: Staphylococcus epidermidis; test: Antibacterial activity against methicillin resistant Staphylococcus epidermidis clinical isolate 20-1 assessed as inhibition of bacterial growth incubated for 7 days by alamar blue assay; type: functional; conditions: clinical isolate 20-1, 168 h, time 7 day
[12] = tested on: Staphylococcus epidermidis; test: Antibacterial activity against methicillin resistant Staphylococcus epidermidis clinical isolate 20-2 assessed as inhibition of bacterial growth incubated for 7 days by alamar blue assay; type: functional; conditions: clinical isolate 20-2, 168 h, time 7 day
[13] = tested on: Staphylococcus aureus; test: Antibacterial activity against vancomycin intermediate Staphylococcus aureus ATCC700699 assessed as inhibition of bacterial growth incubated for 7 days by alamar blue assay; type: functional; conditions: ATCC700699, 168 h, time 7 day
[14] = tested on: Enterococcus; test: Antibacterial activity against vancomycin resistant Enterococcus clinical isolate 20-1 assessed as inhibition of bacterial growth incubated for 7 days by alamar blue assay; type: functional; conditions: clinical isolate 20-1, 168 h, time 7 day
[15] = tested on: Staphylococcus aureus; test: Antibacterial activity against Linezolid resistant Staphylococcus aureus clinical isolate 20-1 assessed as inhibition of bacterial growth incubated for 7 days by alamar blue assay; type: functional; conditions: clinical isolate 20-1, 168 h, time 7 day
[16] = tested on: Staphylococcus aureus; test: Antibacterial activity against Linezolid resistant Staphylococcus aureus clinical isolate 20-2 assessed as inhibition of bacterial growth incubated for 7 days by alamar blue assay; type: functional; conditions: clinical isolate 20-2, 168 h, time 7 day
[17] = tested on: Enterococcus faecalis; test: Antibacterial activity against Linezolid resistant Enterococcus faecalis clinical isolate 20-1 assessed as inhibition of bacterial growth incubated for 7 days by alamar blue assay; type: functional; conditions: clinical isolate 20-1, 168 h, time 7 day
[18] = tested on: Enterococcus faecalis; test: Antibacterial activity against Linezolid resistant Enterococcus faecalis clinical isolate 20-2 assessed as inhibition of bacterial growth incubated for 7 days by alamar blue assay; type: functional; conditions: clinical isolate 20-2, 168 h, time 7 day
[19] = Metabolic stability in ICR mouse liver microsomes assessed as compound remaining at 10 uM incubated for 60 mins in absence of NADPH by LC-MS/MS analysis; type: ADME, Microsome; conditions: read-out: Stability
[20] = Metabolic stability in human liver microsomes assessed as compound remaining at 10 uM incubated for 60 mins in absence of NADPH by LC-MS/MS analysis; type: ADME, Microsome; conditions: read-out: Stability
[21] = tested on: Cell membrane; test: Disruption of cell membrane in methicillin resistant Staphylococcus aureus ATCC 33592 assessed as cell lysis at MIC incubated for 6 hrs by Scanning electron microscopic analysis; type: cell membranes

| Structure (SMILES) | MIC [1] [µg/mL] | MIC [2] [µg/mL] | MIC [3] [µg/mL] | MIC [4] [µg/mL] | MIC [5] [µg/mL] | IC50 at 48 h [8] [µg/mL] | also measured |
| --- | --- | --- | --- | --- | --- | --- | --- |
| CC(=O)NC[C@H]1OC(=O)N2Cc3c(cc(F)c(-c4ccc(-c5nnn(C)n5)nc4)c3F)O[C@H]12 | > 32 | > 64 | > 64 | > 64 | > 64 | – | – |
| Cc1ncc2n1-c1ccc(Cl)cc1C(c1ccccc1F)=NC2 [MIDAZOLAM] | – | – | – | – | – | – | remaining at 1 h, 10 µM [6]: 48.9%; remaining at 1 h, 10 µM [7]: 62% |
| COC(=O)NC[C@@H]1OC(=O)N2Cc3cc(-c4ccc(C#N)nc4)c(F)cc3O[C@@H]12 | 0.97 (≈ 2.44 µM) | 8 (≈ 20.1 µM) | 0.5 (≈ 1.26 µM) | 0.125 (≈ 0.314 µM) | 0.25 (≈ 0.628 µM) | 33 (≈ 82.8 µM) | MIC [9]: 0.5 µg/mL (≈ 1.26 µM); MIC [10]: 0.5 µg/mL (≈ 1.26 µM); MIC [11]: 0.25 µg/mL (≈ 0.628 µM); MIC [12]: 0.25 µg/mL (≈ 0.628 µM); MIC [13]: 1 µg/mL (≈ 2.51 µM); MIC [14]: 1 µg/mL (≈ 2.51 µM); MIC [15]: 16 µg/mL (≈ 40.2 µM); MIC [16]: 16 µg/mL (≈ 40.2 µM); MIC [17]: 4 µg/mL (≈ 10 µM); MIC [18]: 4 µg/mL (≈ 10 µM); remaining at 1 h, 10 µM [19]: 113%; remaining at 1 h, 10 µM [20]: 114%; remaining at 1 h, 10 µM [6]: 116%; remaining at 1 h, 10 µM [7]: 103% |
| CC(=O)NC[C@@H]1OC(=O)N2Cc3c(cc(F)c(-c4ccc(C#N)cc4)c3F)O[C@@H]12 | 3.41 (≈ 8.54 µM) | 2 (≈ 5.01 µM) | 0.25 (≈ 0.626 µM) | 0.032 (≈ 0.0801 µM) | 1 (≈ 2.5 µM) | – | – |
| CCCCCCCCCC(=O)N[C@@H](Cc1c[nH]c2ccccc12)C(=O)N[C@H](CC(N)=O)C(=O)N[C@@H](CC(=O)O)C(=O)N[C@@H]1C(=O)NCC(=O)N[C@@H](CCCN)C(=O)N[C@@H](CC(=O)O)C(=O)N[C@H](C)C(=O)N[C@@H](CC(=O)O)C(=O)NCC(=O)N[C@H](CO)C(=O)N[C@@H]([C@H](C)CC(=O)O)C(=O)N[C@@H](CC(=O)c2ccccc2N)C(=O)O[C@@H]1C | – | – | – | – | – | – | Activity [21]: Active |
| Cn1nnc(-c2ccc(-c3c(F)cc4c(c3F)CN3C(=O)O[C@@H](CN)[C@@H]3O4)cn2)n1 | 0.74 (≈ 1.78 µM) | > 64 | > 64 | 64 (≈ 154 µM) | 64 (≈ 154 µM) | 16 (≈ 38.5 µM) | – |
| CC(=O)NC[C@H]1OC(=O)N2Cc3cc(-c4ccc(-c5nnn(C)n5)nc4)c(F)cc3O[C@@H]12 | 0.54 (≈ 1.23 µM) | 0.125 (≈ 0.284 µM) | 0.5 (≈ 1.14 µM) | 0.125 (≈ 0.284 µM) | – | – | – |
| CC(=O)c1ccc(-c2c(F)cc3c(c2F)CN2C(=O)O[C@@H](CN)[C@@H]2O3)cc1 | 0.43 (≈ 1.15 µM) | 64 (≈ 171 µM) | > 64 | > 64 | 64 (≈ 171 µM) | 34 (≈ 90.8 µM) | – |
| N#Cc1ccc(-c2c(F)cc3c(c2F)CN2C(=O)O[C@@H](CN)[C@@H]2O3)cc1 | 0.99 (≈ 2.77 µM) | 64 (≈ 179 µM) | > 64 | 32 (≈ 89.6 µM) | 32 (≈ 89.6 µM) | 8 (≈ 22.4 µM) | – |
| N#Cc1ccc(-c2c(F)cc3c(c2F)CN2C(=O)O[C@@H](CN)[C@@H]2O3)cn1 | 0.5 (≈ 1.4 µM) | > 64 | > 64 | > 64 | 64 (≈ 179 µM) | 59 (≈ 165 µM) | – |
| CC(=O)NC[C@H]1OC(=O)N2Cc3c(cc(F)c(-c4ccc(C#N)nc4)c3F)O[C@H]12 | > 32 | > 64 | > 64 | > 64 | > 64 | – | – |
| COC(=O)NC[C@@H]1OC(=O)N2Cc3cc(-c4ccc(C(C)=O)cc4)c(F)cc3O[C@@H]12 | 1.74 (≈ 4.2 µM) | > 64 | 0.5 (≈ 1.21 µM) | 0.125 (≈ 0.302 µM) | 0.5 (≈ 1.21 µM) | – | – |
| CC(=O)NC[C@@H]1OC(=O)N2Cc3c(cc(F)c(-c4ccc(C(C)=O)cc4)c3F)O[C@@H]12 | 0.93 (≈ 2.23 µM) | 4 (≈ 9.61 µM) | 0.25 (≈ 0.6 µM) | 0.125 (≈ 0.3 µM) | 0.25 (≈ 0.6 µM) | > 64 | – |

Source: ChEMBL document CHEMBL5608235, “Tricyclic Benzo[1,3]oxazinyloxazolidinones as Potent Antibacterial Agents against Drug-Resistant Pathogens” (J Med Chem, 2024)
